# Data published in ChEMBL document CHEMBL1133166, “Cyclin-dependent kinase inhibitors: useful targets in cell cycle regulation” (J Med Chem, 2000).
# Calls of active or inactive are those of the source. The calls are words filed in the database; no cut-off is given here.
# Key:
# [1] = biological target: Cyclin-dependent kinase 2/cyclin A (Homo sapiens) (UniProt P24941+P20248+P78396); assay: Inhibition of Cyclin-dependent kinase 2-cyclin A; assay type: protein-complex assay
# [2] = biological target: Cyclin-dependent kinase 2/cyclin E (Homo sapiens) (UniProt P24864+P24941+O96020); conditions: Asteroidea
# Description: Inhibition of Cyclin-dependent kinase 2-cyclin E
# [3] = biological target: Cyclin-dependent kinase 1/cyclin B (Homo sapiens) (UniProt P06493+P14635+Q8WWL7+O95067); conditions: Asteroidea
# Description: Inhibition of Cyclin-dependent kinase 1-cyclin B
# [4] = biological target: T1, Cyclin-dependent kinase 4/cyclin D (Homo sapiens) (UniProt P11802+P24385+P30281+P30279); assay: Inhibition of Cyclin-dependent kinase 4-cyclin D; assay type: protein-complex assay
# T1 sequence (P11802 whole entry, looked up): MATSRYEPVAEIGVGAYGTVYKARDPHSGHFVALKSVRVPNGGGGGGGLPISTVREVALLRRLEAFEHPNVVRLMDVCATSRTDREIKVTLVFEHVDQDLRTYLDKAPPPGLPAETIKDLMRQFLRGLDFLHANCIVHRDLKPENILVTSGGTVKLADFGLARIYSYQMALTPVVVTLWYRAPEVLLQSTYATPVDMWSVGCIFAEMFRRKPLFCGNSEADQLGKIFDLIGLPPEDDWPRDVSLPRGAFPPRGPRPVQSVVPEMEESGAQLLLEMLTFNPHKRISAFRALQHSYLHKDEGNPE
# T1 sequence (P24385 whole entry, looked up): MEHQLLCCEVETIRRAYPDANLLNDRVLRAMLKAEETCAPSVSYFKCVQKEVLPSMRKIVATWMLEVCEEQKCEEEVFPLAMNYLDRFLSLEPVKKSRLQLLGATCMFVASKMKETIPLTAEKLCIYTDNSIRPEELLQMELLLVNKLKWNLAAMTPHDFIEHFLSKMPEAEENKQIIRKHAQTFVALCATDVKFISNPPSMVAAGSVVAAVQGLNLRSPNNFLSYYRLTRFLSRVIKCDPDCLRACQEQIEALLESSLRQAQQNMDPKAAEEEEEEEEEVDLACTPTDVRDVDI
# T1 sequence (P30279 whole entry, looked up): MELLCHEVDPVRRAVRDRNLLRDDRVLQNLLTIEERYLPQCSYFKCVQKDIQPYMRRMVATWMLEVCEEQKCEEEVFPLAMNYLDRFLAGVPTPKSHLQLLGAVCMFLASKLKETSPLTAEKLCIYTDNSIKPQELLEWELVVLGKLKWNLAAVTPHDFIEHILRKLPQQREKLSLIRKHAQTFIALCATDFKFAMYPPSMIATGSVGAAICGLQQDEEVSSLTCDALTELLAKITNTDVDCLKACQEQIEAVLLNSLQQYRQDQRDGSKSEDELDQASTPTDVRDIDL
# T1 sequence (P30281 whole entry, looked up): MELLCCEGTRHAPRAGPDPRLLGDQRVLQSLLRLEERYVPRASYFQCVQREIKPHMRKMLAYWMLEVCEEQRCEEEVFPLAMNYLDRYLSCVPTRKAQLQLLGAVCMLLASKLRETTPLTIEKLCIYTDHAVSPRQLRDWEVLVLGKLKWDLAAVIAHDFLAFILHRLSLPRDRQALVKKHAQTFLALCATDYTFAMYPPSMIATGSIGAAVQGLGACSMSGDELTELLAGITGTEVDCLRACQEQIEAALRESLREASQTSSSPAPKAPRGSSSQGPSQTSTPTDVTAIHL
# [5] = biological target: T1, Cyclin-dependent kinase 4/cyclin D (Homo sapiens); assay: Inhibition of Cyclin-dependent kinase 4-cyclin D (Inactive); assay type: protein-complex assay; conditions: Asteroidea
SMILES,ID50 [1],ID50 [2],ID50 [3],also measured
CN1CC[C@H](c2c(O)cc(O)c3c(=O)cc(-c4ccccc4Cl)oc23)[C@H](O)C1,100 nM,–,–,–
CNS(=O)(=O)c1ccc(/N=N/c2c(O)[nH]c3ccc4ncsc4c23)cc1,–,3.5 nM,–,–
CC(C)[C@H](CO)Nc1nc(Nc2ccc(C(=O)O)c(Cl)c2)c2ncn(C(C)C)c2n1,6 nM,–,–,–
CNS(=O)(=O)Cc1ccc(/N=N/c2c(O)[nH]c3ccc4ncccc4c23)cc1,–,6.2 nM,–,–
OCCCNc1cc(-c2ccnc(Nc3cccc(Cl)c3)n2)ccn1,–,50 nM,20 nM,–
CCn1cnc2c(N)nc(N(c3cccc(Cl)c3)[C@@H]3CCCC[C@@H]3N)nc21,–,9 nM,16 nM,ID50 [4]: 29 nM
O=C1Cc2c([nH]c3ccc(Br)cc23)-c2ccccc2N1,–,–,35 nM,–
CC(C)n1c(=O)ccc2ncc(Nc3ccc(N4CCN(C)CC4)cc3)cc21,58 nM,270 nM,675 nM,ID50 [4]: 45 nM
Cn1cnc2c(NCc3ccccc3)nc(NCCO)nc21,–,–,–,IA [5]: inactive
